{"source": "patent US6495589B2", "about": "“Somatostatin antagonists and agonists that act at the SST subtype 2 receptor” (Pfizer Inc., priority 2000, dated 2002)", "test_system": "GH4C1 cells", "assay": "Rat pituitary assay for somatostatin receptor antagonists (cAMP content of GH4C1 cells)", "type": "cell-based", "conditions": "100 nM VIP as stimulus", "source_text": "This assay is designed to quantitate the activity of antagonists of somatostatin that interact directly at the somatostatin receptor. The assay facilitates discovery of agents which increase growth hormone secretion by modulating the inhibitory effects of somatostatin. As aforementioned, somatostatin (also abbreviated SRIF) inhibits GH secretion in the anterior pituitary by binding to a high affinity membrane-bound (and G-protein coupled) receptor which is coupled negatively to adenyl cyclase, thereby reducing intracellular levels of cAMP that would otherwise facilitate, for example, secretion/release of GH from cytoplasmic granules. […] The screen is designed to quantitate the ability of test agents to reverse SRIF's inhibition of the elevated intracellular cAMP levels produced by VIP.\nIn particular, cyclic AMP (cAMP) content of the pituitary cell line GH4C1 was used to differentiate somatostatin agonists from antagonists. […] This afforded a convenient way to conduct a homogenous immunoradiometric assay of cAMP content in cells lysed in situ, following incubation of the cells with test compound. cAMP content in the GH4C1 cells was determined according to the manufacturer's instructions, by comparison with standards at concentrations from 10 to 1,000 nM cAMP. […]\nIC50 values are determined by polynomial regression and analzyed using a MACRO program. […]", "note": "Ends that are not written are not given here.", "data": [{"substance": "VIP: Vasoactive intestinal peptide (Sigma V3628), endogenous peptide that stimulates GH secretion and activates adenylate cyclase (HSDAVFTDNYTRLRKQMAVKKYLNSILN-NH2; ends and bridges not checked; UniProt P01282 125-152, looked up)", "values": [{"measurement": "cAMP content of the GH4C1 cells", "value": "increased"}]}]}
